US20230346734A1, “COMBINATION THERAPY OF ATRA OR OTHER RETINOIDS WITH IMMUNOTHERAPEUTIC AGENTS BINDING TO BCMA” (JULIUS-MAXIMILIANS-UNIVERSITÄT WÜRZBURG, priority 2020, published 2023)

Assays:
[1] = system: BCMA expression on OPM-2; test: BCMA expression on OPM-2 by flow cytometry after ATRA treatment; format: cell-based, human
Description: (§1) Flow cytometric analysis of BCMA-expression on MM.1S, OPM-2 and NCI-H929 cell lines that had been cultured in the absence or presence of 50 nM ATRA for 72 hours. […] 7-AAD was used to exclude dead cells from analysis.

[2] = system: BCMA CD4+ and CD8+ CAR T-cells; test: Viability of BCMA-CAR T-cells after incubation with ATRA; format: cell-based, human; settings: increasing doses of ATRA, 72 hours; 7-AAD- T cells
Description: Viability of BCMA CD4+ and CD8+ CAR T-cells after incubation with increasing doses of ATRA for 72 hours determined by flow cytometry. […] Data are presented as mean values+SD (n=3).

[3] = system: EGFRt_BCMA-CAR transgene expression of BCMA CD4+ and CD8+ CAR T-cells; test: EGFRt_BCMA-CAR transgene expression of BCMA-CAR T-cells after incubation with ATRA; format: cell-based, human; settings: increasing doses of ATRA, 72 hours; EGFRt+ T cells
Description: EGFRt_BCMA-CAR transgene expression of BCMA CD4+ and CD8+ CAR T-cells after incubation with increasing doses of ATRA for 72 hours determined by flow cytometry. […] Data are presented as mean values+SD (n=3).

[4] = system: MM.1S myeloma cells; test: Cytolytic activity of CD8+ BCMA-CAR T-cells against pretreated MM.1S, bioluminescence-based assay; format: cell-based, human; settings: MM.1S pretreated 72 hours with 100 nM ATRA and/or 0.01 uM GSI; 4 h co-incubation
Description: Myeloma cell lines were incubated with 100 nM ATRA and/or 0.01 uM GSI for 72 hours or were left untreated. Cytolytic activity of CD8^+ BCMA-CAR T-cells was determined in a bioluminescence-based assay after 4 h of co-incubation with target cells. Assay was performed in triplicate wells with 5,000 target cells per well. Data are presented as mean values+SD of n=4 independent experiments.
(§2) Cytolytic activity was analyzed in a bioluminescence-based assay using firefly-luciferase (ffluc)-transduced target cells. Proliferation was measured by dilution of CFSE proliferation dye by flow cytometry. Therefore, CFSE-labeled CAR T-cells were incubated with target cells for 72 h at a 4:1 effector to target cell ratio. IFNγ and IL-2 were measured by ELISA (Biolegend, Koblenz, Germany) in supernatants obtained after a 20 hour co-culture of T-cells with target cells (effector:target ratio=4:1).

[5] = system: BCMA RNA levels in MM.1S; test: BCMA RNA levels in MM.1S by qRT-PCR; format: cell-based, human; settings: 50 nM ATRA, 48 hours, qPCR
Description: (§3) BCMA RNA levels in MM.1S (n=4) and OPM-2 (n=3) by quantitative reverse transcription PCR (qRT-PCR) assay was quantified after incubation with increasing doses of ATRA for 48 hours. Depicted are mean values+SD.
(§4) Total RNAs were extracted with RNeasy Mini Kit (Qiagen, Hilden, Germany) according to the manufacturer's protocol. Reverse transcription-quantitative polymerase chain reaction (RT-qPCR) analysis of BCMA was performed with 1 μg of total RNA and SuperScript™ II Reverse Transcriptase (Thermo Fisher Scientific, Inc Massachusetts). The quality and integrity of the RNA was verified by a Bioanalyzer 2100 (Agilent Technologies, Santa Clara, CA). The primer sequences used were as follows: BCMA forward primer, 5′-TGTTCTTCTAATACTCCTCCTCT-3′ (SEQ ID NO: 25) and reverse primer, 5′-AACTCGTCCTTTAATGGTTC-3′ (SEQ ID NO: 26). […] RT-qPCR was performed in a 7900HT Real-time PCR System (Thermo Fisher Scientific, Inc Massachusetts) using Quantitec SYBR green Kit (Qiagen, Hilden, Germany) in a 7900 HT Fast Real Time PCR System (Applied Biosystems, Foster City, CA). […] The threshold cycle for each sample was selected from the linear range and converted to a starting quantity by interpolation from a standard curve generated on the same plate for each set of primers. […]

[6] = system: BCMA-CAR T-cells co-incubated with MM.1S; test: Proliferation of CFSE-labeled BCMA-CAR T-cells after stimulation with pretreated MM.1S; format: cell-based, human; settings: MM.1S pretreated 72 hours with 100 nM ATRA and/or 0.01 uM GSI; CFSE after three days
Description: MM.1S were incubated with 100 nM ATRA and/or 0.01 uM GSI for 72 hours or were left untreated. Afterwards, CFSE-labeled BCMA-CAR T-cells were co-incubated with these target cells. Proliferative capacity of BCMA-CAR T-cells was determined after three days by measuring the reduction of CFSE-labeling in effector cells. Data are presented as mean values+SD of n=3 independent experiments.
as §2

[7] = system: BCMA expression on MM.1S; test: BCMA expression on MM.1S from bone marrow of ATRA-treated NSG mice; format: in vivo; settings: NSG/MM1.S; ATRA 30 mg/kg i.p. every day, 4 days; P=0.002
Description: NSG mice were inoculated with MM.1S cells. After twelve days, mice were i.p. injected with 30 mg/kg ATRA for 4 days. BCMA-expression on MM.1S cells obtained from bone marrow of untreated and ATRA-treated mice was analysed by flow cytometry.
The University of Wurzburg Institutional Animal Care and Use Committee approved all mouse experiments. Six- to eight-week old female NSG (NOD-scid IL2rynull) mice were obtained from Charles River and inoculated by tail vein injection with 2×10^6 MM.1S/ffluc_GFP at day 0 and randomly allocated to ATRA-treatment and control group. ATRA (Sigma Aldrich, Darmstadt, Germany) was formulated in corn oil and administered by intraperitoneal (i.p) injection (30 mg/kg) for four days, starting twelve days after tumor inoculation.
This encouraged experiments in a murine xenograft model of myeloma (NSG/MM1.S). In a first set of experiments, n=6 mice were inoculated with MM1.S cells (2×10^6 cells given i.v. by tail vein injection) for 12 days to establish systemic myeloma, and then administered a 4-day treatment course with either ATRA (n=3 mice; 30 mg/kg given i.p. every day) or solvent control (n=3 mice). The following day, mice were sacrificed, MM.1S myeloma cells were isolated from bone marrow and BCMA expression analyzed by flow cytometry. […] The in vivo upregulation of BCMA after GSI treatment was shown by Pont et. al. in 2019^40.

[8] = system: BCMA-CAR T-cells co-incubated with MM.1S; test: Cytokine release of BCMA-CAR T-cells after stimulation with pretreated MM.1S, ELISA; format: cell-based, human; settings: MM.1S pretreated 72 hours with 100 nM ATRA and/or 0.01 uM GSI, 20 hours co-incubation
Description: MM.1S were incubated with 100 nM ATRA and/or 0.01 uM GSI for 72 hours or were left untreated. Afterwards, BCMA-CAR T-cells were co-incubated with these target cells for 20 hours. Cytokine release of BCMA-CAR T-cells was determined in the supernatant by ELISA. Assay was performed in triplicate wells. Data are presented as mean values+SD of n=3 independent experiments.
as §2

[9] = system: BCMA surface molecules on MM.1S cells; test: BCMA molecule distribution on MM.1S cells by dSTORM; format: cell-based, human; settings: vs untreated
From the text: Representative photographs of BCMA molecule distribution on untreated and ATRA-treated MM.1S cells visualized by direct stochastic optical reconstruction microscopy (dSTORM).

[10] = system: BCMA expression on MM.1S; test: BCMA expression on MM.1S by flow cytometry after ATRA treatment; format: cell-based, human
Description: as §1

[11] = system: BCMA RNA levels in OPM-2; test: BCMA RNA levels in OPM-2 by qRT-PCR; format: cell-based, human; settings: 50 nM ATRA, 48 hours, qPCR
Description: as §3, §4

[12] = system: BCMA expression on NCI-H929; test: BCMA expression on NCI-H929 by flow cytometry after ATRA treatment
[13] = system: BCMA expression on primary myeloma cells; test: BCMA expression on primary myeloma cells by flow cytometry after ATRA treatment
[14] = deltaMFI at baseline normalized to 1, 72 hours

Q: `CC1=C(/C=C/C(C)=C/C=C/C(C)=C/C(=O)O)C(C)(C)CCC1` [ATRA, all-trans retinoic acid] was tested. Which “time for BCMA expression to return to baseline levels upon discontinuation of ATRA treatment” value (“time for BCMA expression to return” for short) [1] did it give?
A: ≤ 72 h

Q: What about the “BCMA expression when ATRA treatment was recommenced” value ([1]; 72 hours after re-exposition) of the same molecule?
A: increased again with the same amplitude

Q: And the “BCMA expression, deltaMFI” value ([1]; ATRA (50 nM per FIG. 1) for 72 hours, untreated deltaMFI 3,558)?
A: 7,358

Q: And the “relative increase in BCMA expression after ATRA treatment” value (shortened to “relative increase in BCMA expression”) [1, 14]?
A: 1.9 fold

Q: What about the “effect on viability of BCMA-CAR T-cells” value [2] of the same molecule?
A: no negative effect

Q: And the “effect on expression of the EGFRt_BCMA-CAR transgene” value [3]?
A: did not diminish

Q: What about the “cytolytic activity of BCMA-CAR T-cells against pretreated vs non-treated target cells” value [4] of the same molecule?
A: superior cytolysis

Q: What about the “relative increase in BCMA transcripts” value [5] of the same molecule?
A: 1.8 fold

Q: What about the “proliferative capacity of BCMA-CAR T-cells” value [6] of the same molecule?
A: enhanced proliferative capacity

Q: What about the “BCMA expression on MM.1S myeloma cells from bone marrow vs control mice” value [7] of the same molecule?
A: Significantly higher BCMA expression

Q: And the “cytokine release of BCMA-CAR T-cells” value [8]?
A: enhanced

Q: What about the “BCMA surface molecules by dSTORM after ATRA treatment” value [9] of the same molecule?
A: increase of BCMA surface molecules

Q: And the “time for BCMA expression to return” value [10]?
A: ≤ 72 h

Q: What about the “BCMA expression when ATRA treatment was recommenced” value ([10]; 72 hours after re-exposition) of the same molecule?
A: increased again with the same amplitude

Q: What about the “BCMA expression, deltaMFI” value ([10]; ATRA (50 nM per FIG. 1) for 72 hours, untreated deltaMFI 1,098) of the same molecule?
A: 2,709

Q: What about the “relative increase in BCMA expression” value [10, 14] of the same molecule?
A: 1.9 fold

Q: And the “relative increase in BCMA transcripts” value [11]?
A: 2.1 fold

Q: What about the “time for BCMA expression to return” value [12] of the same molecule?
A: ≤ 72 h

Q: What about the “BCMA expression when ATRA treatment was recommenced” value ([12]; 72 hours after re-exposition) of the same molecule?
A: increased again with the same amplitude

Q: And the “BCMA expression, deltaMFI” value ([12]; ATRA (50 nM per FIG. 1) for 72 hours, untreated deltaMFI 9,883)?
A: 13,891

Q: What about the “relative increase in BCMA expression” value [12, 14] of the same molecule?
A: 1.7 fold

Q: And the “BCMA expression once exposure to ATRA was discontinued” value ([13]; 100 nM ATRA, 24 hours after removal)?
A: declined to baseline levels

Q: What about the “increase in deltaMFI for BCMA expression, average” value ([13]; 100 nM ATRA, 72 hours) of the same molecule?
A: 1.6 ×

Q: What about the “BCMA expression upon re-exposure to ATRA” value ([13]; 72 hours after re-exposition) of the same molecule?
A: increased again

Q: And the “BCMA expression by flow cytometry after ATRA” value ([13]; n=5 patients, 72 hours, 100 nM P=0.04, 50 nM P=0.006, 25 nM P=0.04)?
A: significant increase
